This passage reports IC50 and EC50 results from ChEMBL document CHEMBL4020814, “Synthesis, Binding Mode, and Antihyperglycemic Activity of Potent and Selective (5-Imidazol-2-yl-4-phenylpyrimidin-2-yl)[2-(2-pyridylamino)ethyl]amine Inhibitors of Glycogen Synthase Kinase 3” (J Med Chem, 2017).

Assay [1] can be described thus: Inhibition of human GSK3 using biotin-CREB peptide substrate after 1 hr by scintillation counting method.
The nature of assay [2]: Inhibition of GSK3 expressed in CHO-IR cells expressing human insulin receptor assessed as glycogen synthase activation after 30 mins by filter paper assay. It counts as cell-based, Cavia porcellus.

In general, IC50 refers to the concentration needed to halve the response being measured. High values mean a need for much substance, low ones inhibition by little substance. The term EC50 denotes the concentration giving half of the maximal effect. The compound `N#Cc1ccc(-c2nc(NCCNc3ccc([N+](=O)[O-])cn3)ncc2C(=O)N2CCNCC2)cc1` returned an IC50 in assay [1] of 0.417 µM. In addition, the EC50 in assay [2] is greater than 10 µM.

Turning to `CC(C)(C)c1c[nH]c(-c2cnc(NCCNc3ccc([N+](=O)[O-])c(N)n3)nc2-c2ccc(Cl)cc2Cl)n1`, the IC50 in assay [1] is 0.027 µM. Besides, in assay [2], the EC50 stood at 1.07 µM.

With `CN(CCNc1ccc([N+](=O)[O-])cn1)c1ncc(-n2ccnc2)c(-c2ccc(Cl)cc2Cl)n1`, the IC50 in assay [1] was 0.022 µM. In addition, the EC50 in assay [2] stood at 0.08 µM.

On to `O=[N+]([O-])c1ccc(NCCNc2ncc(-n3ccnc3)c(-c3ccccc3)n2)nc1`, for which, in assay [1], the IC50 came out at 0.197 µM. Further, the EC50 in assay [2] came out at 23.9 µM.

In assay [1], `FC(F)(F)c1ccc(NCCNc2ncc(-n3ccnc3)c(-c3ccc(Cl)cc3Cl)n2)nc1` had an IC50 of 0.223 µM. Moreover, the EC50 in assay [2] was 3.84 µM.

As to `Nc1nc(NCCNc2ncc(-c3nc(-c4ccccc4)c[nH]3)c(-c3ccc(Cl)cc3Cl)n2)ccc1[N+](=O)[O-]`, in assay [1], the 50% inhibitory concentration (IC50) came to 0.001 µM. The EC50 in assay [2] stood at 0.13 µM.

On to `CCOC(=O)c1cnc(NCCNc2ccc([N+](=O)[O-])cn2)nc1-c1ccc(C#N)cc1`, for which the IC50 in assay [1] turned out to be 0.052 µM. In addition, in assay [2], the EC50 worked out at 2.2 µM.

The compound `Nc1nc(NCCNc2ncc(-c3nc(C(F)(F)F)c[nH]3)c(-c3ccc(Cl)cc3Cl)n2)ccc1[N+](=O)[O-]` yielded a half-maximal inhibitory concentration (IC50) in assay [1] of 0.034 µM. For the same compound, in assay [2], the EC50 amounted to 0.17 µM.

In assay [1], `N#Cc1ccnc(NCCNc2ncc(-n3ccnc3)c(-c3ccc(Cl)cc3Cl)n2)c1` had an IC50 of 0.2 µM.

As to `O=[N+]([O-])c1ccc(NCCN(CCN2CCCCCC2)c2ncc(-n3ccnc3)c(-c3ccc(Cl)cc3Cl)n2)nc1`, the IC50 in assay [1] amounted to 0.032 µM. The EC50 in assay [2] came to 0.11 µM.

For the compound `CC(C)(C)NC(=O)c1cnc(NCCNc2ccc([N+](=O)[O-])cn2)nc1-c1ccc(C#N)cc1`, the IC50 in assay [1] came to 0.11 µM. In assay [2], the EC50 is greater than 10 µM.

In turn, `N#Cc1ccc(NCCNc2ncc(-n3ccnc3)c(-c3ccc(Cl)cc3Cl)n2)nc1N` gave an IC50 in assay [1] of 0.056 µM. Further, in assay [2], the EC50 is 1.01 µM.

On to `FC(F)(F)c1ccnc(NCCNc2ncc(-n3ccnc3)c(-c3ccc(Cl)cc3Cl)n2)n1`, for which the IC50 in assay [1] stood at 0.381 µM. In other words, the sub-micromolar range.

Consider `CN(C)CCNC(=O)c1cnc(NCCNc2ccc([N+](=O)[O-])cn2)nc1-c1ccc(C#N)cc1`, for which half-maximal inhibition in assay [1] (IC50) required 0.071 µM. The EC50 in assay [2] was greater than 10 µM.

`Cc1cc(NCCNc2ncc(-n3ccnc3)c(-c3ccc(Cl)cc3Cl)n2)n2ncnc2n1` returned an IC50 in assay [1] of 0.108 µM. In addition, in assay [2], the EC50 is greater than 10 µM.

Turning to `Cc1noc(-c2cnc(NCCNc3ccc([N+](=O)[O-])cn3)nc2-c2ccc(C#N)cc2)n1`, the IC50 in assay [1] came to 0.033 µM. In addition, in assay [2], the EC50 worked out at 1.5 µM.

Compound `Nc1nc(NCCNc2ncc(-c3ccccn3)c(-c3ccc(Cl)cc3Cl)n2)ccc1[N+](=O)[O-]` returned an IC50 in assay [1] of 0.007 µM. Moreover, the EC50 in assay [2] was 0.01 µM.

`Cc1nc(-c2cnc(NCCNc3ccc([N+](=O)[O-])c(N)n3)nc2-c2ccc(Cl)cc2Cl)[nH]c1C` displayed an IC50 in assay [1] of 0.003 µM. In assay [2], the EC50 turned out to be 0.44 µM.

In assay [1], `CC(=O)c1ccc(NCCNc2ncc(-n3ccnc3)c(-c3ccc(Cl)cc3Cl)n2)nc1` had an IC50 of 5.95 µM.

Consider `CCOC(=O)c1ccc(NCCNc2ncc(-n3ccnc3)c(-c3ccc(Cl)cc3Cl)n2)nc1`, for which the IC50 in assay [1] came out at 3.65 µM.

Regarding `CNc1nc(NCCNc2ncc(-n3ccnc3)c(-c3ccc(Cl)cc3Cl)n2)ccc1[N+](=O)[O-]`, in assay [1], the midpoint of inhibition, the IC50, lay at 0.576 µM.

Take `COc1cccc(-c2nc(NCCNc3ccc([N+](=O)[O-])cn3)ncc2-n2ccnc2)c1`: half-maximal inhibition in assay [1] (IC50) was put at 0.347 µM.

In assay [1], `COCCN(CCNc1ccc([N+](=O)[O-])cn1)c1ncc(-n2ccnc2)c(-c2ccc(Cl)cc2Cl)n1` returned an IC50 of 0.175 µM. Against the preceding compound, the IC50 is about 2-fold lower.

In assay [1], `COc1nc(NCCNc2ncc(-n3ccnc3)c(-c3ccc(Cl)cc3Cl)n2)ccc1[N+](=O)[O-]` showed an IC50 of 0.081 µM.

On to `O=[N+]([O-])c1ccc(NCCNc2ncc(-n3ccnc3)c(-c3ccc(N4CCNCC4)cc3)n2)nc1`, for which the midpoint of inhibition in assay [1], the IC50, lay at 0.166 µM.

As for `N#Cc1ccc(-c2nc(NCCNc3ccc([N+](=O)[O-])cn3)ncc2C(=O)NCc2ccncc2)cc1`, the IC50 in assay [1] is 0.047 µM.

With `CN(C)c1nc(NCCNc2ncc(-n3ccnc3)c(-c3ccc(Cl)cc3Cl)n2)ccc1[N+](=O)[O-]`, in assay [1], the IC50 is 1 µM. This IC50 lies about 21-fold higher than the previous one.

In the case of `CCOC(=O)C1=C(CC)N=C(NCCNc2ccc([N+](=O)[O-])cn2)NC1c1ccc(C(N)=O)cc1` (configuration not stated), half-maximal inhibition in assay [1] (IC50) was put at 3.4 µM.

With `O=[N+]([O-])c1ccc(NCCNc2ncc(-n3ccnc3)c(-c3ccc(N4CCCCC4)cc3)n2)nc1`, the IC50 in assay [1] is 0.777 µM.

`N#Cc1ccc(-c2nc(NCCNc3ccc([N+](=O)[O-])cn3)ncc2C(=O)OCc2ccccc2)cc1` yielded an IC50 in assay [1] of 0.19 µM. Compared with the last compound, the IC50 is about 4.1-fold lower.

The compound `O=[N+]([O-])c1ccc(NCCNc2ncc(-n3ccnc3)c(-c3ccc(Cl)cc3Cl)n2)nc1O` yielded an IC50 in assay [1] of 1 µM.

`CN1CCN(C)C(CN(CCNc2ccc([N+](=O)[O-])cn2)c2ncc(-n3ccnc3)c(-c3ccc(Cl)cc3Cl)n2)C1` (configuration not stated): the IC50 in assay [1] worked out at 0.121 µM.

For `COc1ccccc1-c1nc(NCCNc2ccc([N+](=O)[O-])cn2)ncc1-n1ccnc1`, the IC50 in assay [1] was determined as 0.884 µM.

For the compound `N#Cc1ccc(-c2nc(NCCNc3ccc([N+](=O)[O-])cn3)ncc2C(=O)N2CCOCC2)cc1`, in assay [1], the IC50 worked out at 0.161 µM.

In the case of `O=[N+]([O-])c1ccc(NCCNc2ncc(-n3ccnc3)c(-c3ccc(Cl)c(Cl)c3)n2)nc1`, in assay [1], inhibition was half-maximal at 0.646 µM (IC50). This IC50 is about 4-fold higher than that of the compound before.

In turn, `O=[N+]([O-])c1ccc(NCCNc2ncc(-n3ccnc3)c(-c3ccc(-n4ccnc4)cc3)n2)nc1` returned an IC50 in assay [1] of 0.124 µM.

For `N#Cc1ccc(-c2nc(NCCNc3ccc([N+](=O)[O-])cn3)ncc2C(=O)NCCN)cc1`, inhibition in assay [1] was half-maximal at 0.153 µM (IC50). The IC50 values of the last two compounds are within 1.5-fold of each other.

Turning to `COc1ccc(OC)c(-c2nc(NCCNc3ccc([N+](=O)[O-])cn3)ncc2-n2ccnc2)c1`, the IC50 in assay [1] came out at 4.87 µM. This IC50 lies about 32-fold higher than the previous one.

As to `N#Cc1ccc(-c2nc(NCCNc3ccc([N+](=O)[O-])cn3)ncc2C(=O)NCc2ccccc2)cc1`, the midpoint of inhibition in assay [1], the IC50, lay at 0.075 µM.

For the compound `Clc1ccc(-c2nc(NCCNc3ncccn3)ncc2-n2ccnc2)c(Cl)c1`, the IC50 in assay [1] is greater than 10 µM.

As for `O=[N+]([O-])c1ccc(OCCNc2ncc(-n3ccnc3)c(-c3ccc(Cl)cc3Cl)n2)nc1`, the IC50 in assay [1] is 2.83 µM.

In turn, `CCOC(=O)C1=C(c2ccc([N+](=O)[O-])cc2)N=C(NCCNc2ccc([N+](=O)[O-])cn2)NC1c1ccc(C(N)=O)cc1` (configuration not stated) had a concentration for half-maximal inhibition (IC50) in assay [1] of 2 µM.

In assay [1], `CC(C)(C)OC(=O)c1cnc(NCCNc2ccc([N+](=O)[O-])cn2)nc1-c1ccc(C#N)cc1` yielded a concentration for half-maximal inhibition (IC50) of 0.025 µM.

`Cc1cc([N+](=O)[O-])cnc1NCCNc1ncc(-n2ccnc2)c(-c2ccc(Cl)cc2Cl)n1`: the IC50 in assay [1] stood at 3.37 µM.

In turn, `O=[N+]([O-])c1ccc(NCCN(CCc2ccccn2)c2ncc(-n3ccnc3)c(-c3ccc(Cl)cc3Cl)n2)nc1` showed an IC50 in assay [1] of 0.113 µM.

For the compound `Cc1cc(NCCNc2ncc(-n3ccnc3)c(-c3ccc(Cl)cc3Cl)n2)nc(N)n1`, the IC50 in assay [1] was greater than 10 µM.

The compound `CCOC(=O)c1c(-c2ccncc2)nc(NCCNc2ccc([N+](=O)[O-])cn2)nc1-c1ccc(C(N)=O)cc1` had an IC50 in assay [1] of 0.14 µM. This lies in the sub-micromolar range.

With `CN1CCN(c2ccc(-c3nc(NCCNc4ccc([N+](=O)[O-])cn4)ncc3-n3ccnc3)cc2)CC1`, the midpoint of inhibition in assay [1], the IC50, lay at 1.12 µM.

In the case of `O=[N+]([O-])c1ccc(NCCNc2ncc(-n3ccnc3)c(-c3ccc(F)cc3)n2)nc1`, 0.2 µM corresponded to half-maximal inhibition in assay [1] (IC50).

Compound `CCOC(=O)C1=C(c2ccncc2)N=C(NCCNc2ccc([N+](=O)[O-])cn2)NC1c1ccc(C(N)=O)cc1` (configuration not stated) came in with an IC50 in assay [1] of 3.7 µM.

In assay [1], `CC(C)(C)OC(=O)N1CCN(c2ccc(-c3nc(NCCNc4ccc([N+](=O)[O-])cn4)ncc3-n3ccnc3)cc2)CC1` gave an IC50 of 1.93 µM.
